Source: patent publication US12465049B2, “Pest control method, and pest control agent composition and pest control agent set” (Nippon Soda Co., Ltd., priority 2019, dated 2025)

Test system: Tetranychus urticae
Experiment: Test for confirming effect on Tetranychus urticae (kidney bean leaves in petri dish, sprinkling; survival numbers of next generation)
Type: in vivo
Experimental: Test for Confirming Effect on Tetranychus urticae
Ten Tetranychus urticae female imagoes were inoculated on kidney bean leaves placed in each petri dish on the day before chemical solution treatment.
A flowable agent containing the compound A was diluted with water containing RABIDEN 3S diluted 5000 times to prepare chemical solutions A containing the compound A at twice concentrations described in Table 3, respectively.
A preparation containing the compound B or a flowable agent containing the compound B was diluted with water containing RABIDEN 3S diluted 5000 times to prepare chemical solutions B containing the compound B at twice concentrations described in Table 3, respectively.
{Preparations Used in Test Examples and Containing the Compound B}
• Test numbers a and b: hexythiazox: Nissorun wettable powder (produced by Nippon Soda Co., Ltd.) • Test numbers c and d: abamectin: Agri-Mek (produced by Syngenta Japan K.K.) • Test numbers e and f: fenpyroximate: DANITRON flowable (produced by NIHON NOHYAKU CO., LTD.) • Test numbers g and h: acetamiprid: MOSPILAN water soluble powder (produced by Nippon Soda Co., Ltd.) • Test number i: propargite: Omite wettable powder (produced by NIHON NOHYAKU CO., LTD.)
A mixed solution obtained by mixing the chemical solution A and the chemical solution B in an equivalent amount was sprinkled on a petri dish containing kidney bean leaves on which Tetranychus urticae was inoculated at 2 mg per 1 cm^2 with a rotatory sprinkling tower (AB mixture application plot).
The chemical solution A and the chemical solution B were twice diluted with the water containing RABIDEN 3S diluted 5000 times to obtain a chemical solution A′ and a chemical solution B′, respectively.
The chemical solution A′ was sprinkled on another petri dish containing kidney bean leaves on which Tetranychus urticae was inoculated at 2 mg per 1 cm^2 with a rotatory sprinkling tower (A single application plot). The Chemical solution B′ was sprinkled on another petri dish containing kidney bean leaves on which Tetranychus urticae was inoculated at 2 mg per 1 cm^2 with a rotatory sprinkling tower (B single application plot).
Then, the petri dishes on which the chemical solutions were sprinkled were placed in a thermostatic chamber at a temperature of 25° C. and a humidity of 60%. All the imagoes were removed after 3 days elapsed from the sprinkling. Then, the petri dishes from which the imagoes were removed were placed in a thermostatic chamber at a temperature of 25° C. and a humidity of 60%. When 10 days elapsed from the sprinkling, the survival numbers of the next generation were investigated, and the effectivenesses were calculated. Effectiveness (%)=(Cn−Tn)/Cn×100 • Cn: Survival numbers of next generation in non-treatment plot after 10 days • Tn: Survival numbers of next generation in treatment plot after 10 days
To show the degree of a synergistic effect, the “effectiveness expectation” was calculated based on the Colby method. When the effectiveness is higher than the “effectiveness expectation”, it is determined that there is a synergistic effect. Expectation of effectiveness (%)(E)=X+Y−XY/100 • X: measurement of effectiveness in B single application plot (%) • Y: measurement of effectiveness in A single application plot (%)

CCN(Oc1cc(Br)cc(C(F)(F)F)c1)C(=O)NC(C)(C)C(=O)NCC(F)(F)F [Compound (II), 2-{3-[3-bromo-5-(trifluoromethyl)phenoxy]-3-ethylureido}-2-methyl-N-(2,2,2-trifluoroethyl)propanamide]
Effectiveness Found (Compound (II) 2.3 ppm, A single application plot, next generation 10 days after sprinkling): 52%
Effectiveness Found (Compound (II) 4.7 ppm, A single application plot, next generation 10 days after sprinkling): 74%

C/C(=N\C#N)N(C)Cc1ccc(Cl)nc1 [acetamiprid]
Effectiveness Found (acetamiprid 100 ppm, B single application plot, 10 days after sprinkling): 5%

CCCOc1cc(C(F)(F)F)ccc1O[C@H]1C[C@H]2CCC[C@@H](C1)N2Oc1ccc(C(F)(F)F)cn1 [acynonapyr]
Effectiveness Found (acynonapyr 0.4 ppm, B single application plot, 10 days after sprinkling): 58%

Cc1nn(C)c(Oc2ccccc2)c1C=NOCc1ccc(C(=O)OC(C)(C)C)cc1 [fenpyroximate]
Effectiveness Found (fenpyroximate 2.5 ppm, B single application plot, 10 days after sprinkling): 67%

C[C@@H]1[C@@H](c2ccc(Cl)cc2)SC(=O)N1C(=O)NC1CCCCC1 [hexythiazox]
Effectiveness Found (hexythiazox 1 ppm, B single application plot, 10 days after sprinkling): 58%

C#CCOS(=O)OC1CCCCC1Oc1ccc(C(C)(C)C)cc1 (centres unmarked) [propargite]
Effectiveness Found (propargite 5 ppm, B single application plot, 10 days after sprinkling): 24%

abamectin
Effectiveness Found (abamectin 0.07 ppm, B single application plot, 10 days after sprinkling): 42%
